In US20250236600A1, “SUBSTITUTED VINYL PIPERAZINE-PIPERIDINE UREA DERIVATIVES AS ANTICANCER AGENTS” (UNIVERSITA' DEGLI STUDI DI PAVIA, priority 2021, published 2025):
“Also recorded” adds a separate entry of the source.

How the values were obtained:
U87-MG cells [1] = assay: Sulforhodamine B (SRB) cell viability assay, U87-MG; format: cell-based; conditions: Homo sapiens, U-87 MG, 24 hours
Excerpt: (§1) Sulforhodamine B (SRB) assay was used to evaluate RPMI 8226 cell viability in vitro. It is a widely used method to evaluate cell viability and cytotoxicity. This method relies on the property of SRB, which binds stoichiometrically to proteins under mild acidic conditions. Thus, the amount of bound dye can be used as measure of cell proliferation.
(§2) Human RPMI 8226 and U87-MG cells were growth in culture medium (DMEM low glucose for U87-MG and RPMI 1640 for RPMI 8226), supplemented with 10% fetal bovine serum, 1% L-glutamine, 1% penicillin and streptomycin. Cells were maintained in a humidified incubator at 37° C. and 5% CO2. For SRB assay, 1×10^4/well cells were seeded in a 96-well plate and were treated with increasing concentrations of the compounds (1-20 μM). After 24 hours, cells were fixed with 10% trichloroacetic acid and were stained with SRB solution. Excess of dye was removed by washing with 1% acetic acid. The protein-bound dye was then dissolved in 10 mM Tris base solution and absorbance was measured at 510 nm using a microplate reader.
(§3) Statistical analysis of the data obtained was performed using the one-way analysis of variance (ANOVA) and the Dunnet's post-hoc test. Values of p<0.01 (**) were considered statistically significant.
(§4) The results, expressed as the mean±standard deviation, represents the percentage of viable cells compared to untreated control (arbitrarily set to 100%).
(§5) FIG. 7 represents the results obtained in U87-MG cells after treatment with compound 26 (A), 27 (B), 28 (C) 29 (D) and 30 (E). FIG. 8 represents the results obtained for RPMI 8226 cells after treatment with compound 26 (A), 27 (B), 28 (C) 29 (D) and 30 (E). Cells were treated for 24 hours with increasing concentrations of compounds (1, 5, 10 and 20 μM).

RPMI 8226 cells [2] = assay: Boyden chamber cell invasion, RPMI 8226; format: cell-based, Human; conditions: RPMI 8226, treated at IC20 of SRB assay, 24 hours; for cell invasion compared to untreated control: control = 100%; for cell invasion (result in words): FIG. 10B
Experimental: (§6) Cell invasion is evaluated by Boyden Chamber. In Boyden chamber, cells attracted by a chemoattractant pass through a porous membrane coated with gelatine. This in vitro assay is indicative of the ability of cells to cross an extracellular substrate and invade surrounding tissues. U87-MG and RPMI cells were resuspended in FBS-free medium, with or without treatments. IC20 obtained in SRB assay was used as compound treatment concentration, in order to not affect the invasion results with a too high mortality. 5×10^3 cells/well were seeded in the upper compartment of the Boyden chamber. In the lower compartment a complete medium supplemented with 10% FBS was placed. FBS was used as chemoattractant. Between the two compartments, a gelatine coated polycarbonate membrane with 8 μm pores was placed. The Boyden chamber, thus set up, was placed at 37° C. in an incubator for 24 hours (RPMI 8226 cells) or for 16 hours (U87-MG cells). After incubation membrane was removed and cells on the lower surface of the membrane were fixed and stained with Diffquick staining kit. Micrographs were taken and cells were counted using ImageJ software.
(§7) Statistical analysis of the data obtained was performed using the ANOVA and the Dunnet's post-hoc test. Values of p<0.01 (**) were considered statistically significant.
(§8) The results, expressed as the mean±standard deviation, represents the percentage of cells that are able to pass through the membrane compared to untreated control (arbitrarily set to 100%).

RPMI 8226 cells [3] = assay: Sulforhodamine B (SRB) cell viability assay, RPMI 8226; format: cell-based, Human; conditions: RPMI 8226, SRB assay, 24 hours; for IC20 / IC50: Homo sapiens
Excerpt: as §1, §2, §3, §4, §5

[4] = tested on: dorsal root ganglia (DRG); assay: NGF-induced neurite outgrowth of DRG organotypic cultures (neurotoxic effect); format: cell-based, embryonic Sprague-Dawley rats; conditions: for neurotoxicity in vitro (result in words): concentrations = IC20, IC50, IC80 of U87-MG SRB assay, neurotoxic if neurites length less than 50% of control
Experimental: Evaluation of NGF-induced neurite outgrowths was performed on dorsal root ganglia (DRG) of 15-day-old embryonic Sprague-Dawley rats. Briefly, DRG were aseptically collected and plated onto collagen coated dishes. DRG were cultured in AN2 medium supplemented with 5 ng/mL NGF in a 5% CO2 humidified incubator at 37° C. DRG were treated after 2 hours with increasing concentrations of compounds, corresponding to IC20, IC50 and IC80 in U87-MG SRB assay. Micrographs of DRG were taken after 24 and 72 hours of treatment and neurite elongation was manually measured using ImageJ software.
as §7
The results, expressed as the mean±standard deviation, represents the percentage of neurite outgrowth compared to untreated control (arbitrarily set to 100%).
According to this method of in vitro neurotoxicity evaluation, a compound can be considered neurotoxic if neurites length is less than 50% of the control.

U87-MG cells [5] = assay: Boyden chamber cell invasion, U87-MG; format: cell-based, Human; conditions: treated at IC20 of SRB assay, 16 hours, FIG. 10A
Experimental: as §6, §7, §8

Proteasome [6] = assay: Proteasome activity (7-Amido-4-Methylcoumarin fluorescent probe) in RPMI 8226 cells; format: cell-based, Human; conditions: RPMI 8226, treated at IC50 of SRB assay, 24 hours
Experimental: (§9) Proteasome is a cellular complex responsible for the degradation of a high amount of regulatory, misfolded or damaged intracellular proteins. It is considered an important target for anticancer therapy. Proteasome activity was evaluated by 7-Amido-4-Methylcoumarin fluorescent probe. U87-MG and RPMI 8226 cells were cultured in 6 well-plates at 25×10^4 cells/well density and were treated with IC50 concentration of each compound (calculated in SRB assay). After 24 hours of treatment, cells were collected and total protein extracts were obtained. Lysis buffer (5 mM Hepes pH 7.5, 150 mM NaCl, 10% glycerol, 1% Triton X100, 1.5 mM MgCl2, 5 mM EGTA) was […] with proteases and phosphatases inhibitors. Protein content was quantified using Bradford method. 40 μg of proteins were mixed with proteasome buffer (250 mM Hepes pH 7.5, 5 mM EDTA, 0.5% NP-40, 0.01% SDS) and 2.2 mM 7-Amido-4-Methylcoumarin. After 2 hours of incubation at 37° C., fluorescence was quantified in a microplate reader (excitation 380 nm, emission 460 nm). Statistical analysis of the data obtained was performed using the ANOVA and the Dunnet's post-hoc test. Values of p<0.01 (**) were considered statistically significant. The results, expressed as the mean±standard deviation, represents the percentage of proteasome activity compared to untreated control (arbitrarily set to 100%).

U87-MG cells [7] = assay: Scratch wound healing cell migration assay; format: cell-based, Human; conditions: 1-10 μM, 24 hours, FIG. 9
Experimental: FIG. 9 represent cell migration assays on U87-MG cells.
The scratch wound healing assay evaluates the ability of cells to close a manually created gap on the cell monolayer in vitro. This assay is indicative of cell motility and the ability of cells to propagate locally.
Cells were seeded in 6-well plates and were incubated until reaching confluence. At this point, using a plastic tip, a scratch was manually created on the surface of the cell monolayer. Culture medium was then replaced with fresh medium with or without treatments. Cells were treated with increasing concentrations of the compounds (1-10 μM). Micrographs were taken immediately after the scratch (t0) and 24 hours later (t24). The area of the scratch was measured using ImageJ software and cell migration area was calculated by subtracting the t24 area from the t0 area.
as §3
The results, expressed as the mean±standard deviation, represents the percentage of the cell migration area compared to untreated control (arbitrarily set to 100%).

Proteasome [8] = assay: Proteasome activity (7-Amido-4-Methylcoumarin fluorescent probe) in U87-MG cells; format: cell-based, Human; conditions: treated at IC50 of SRB assay, 24 hours; for proteasome inhibition: FIG. 11A
Experimental: as §9

| IC50 (U87-MG cells [1]) [µM] | SMILES | cell invasion compared to untreated control (RPMI 8226 cells [2]) [%] | IC20 (RPMI 8226 cells [3]) [µM] | IC50 (RPMI 8226 cells [3]) [µM] | IC80 (RPMI 8226 cells [3]) [µM] | neurotoxicity in vitro (result in words) ([4]; rat DRG, 24 and 72 hours) | cell invasion (result in words) (U87-MG cells [5]) | proteasome inhibition (result in words) (Proteasome [6]) | cell migration (result in words) (U87-MG cells [7]) | neurite length, percentage of untreated control ([4]; rat DRG, all evaluated concentrations) | cell invasion (result in words) (RPMI 8226 cells [2]) | proteasome inhibition (result in words) (Proteasome [8]) | proteasome inhibition (Proteasome [8]) [%] | concentration up to which not neurotoxic ([4]; rat DRG neurite outgrowth, 24 and 72 hours) |
| --- | --- | --- | --- | --- | --- | --- | --- | --- | --- | --- | --- | --- | --- | --- |
| 10 ± 0.5 | C/C(=C\CN1CCN(C(=O)NC2CCCCC2)CC1)c1ccc2ccccc2c1 [Compound 27, (E)-N-cyclohexyl-4-(3-(naphthalen-2-yl)but-2-en-1-yl)piperazine-1-carboxamide] | ~80 | 9.5 ± 3.7 | 6.4 ± 0.3 | 4.2 ± 2.1 | not neurotoxic at all evaluated concentrations and time points | weak effect against cell invasion | not an inhibitory effect | strong cell migration inhibitors |  |  |  |  |  |
| 10.8 ± 1.8 | C/C(=C\CN1CCN(C(=O)Nc2ccc(C)cc2)CC1)c1ccc2ccccc2c1 [Compound 28, (E)-4-(3-(naphthalen-2-yl)but-2-en-1-yl)-N-(p-tolyl)piperazine-1-carboxamide] |  | 7.1 ± 0.6 | 3.7 ± 0.6 | 1.9 ± 0.5 | not neurotoxic at all evaluated concentrations and time points | very effective in reducing cell invasion; also recorded: significantly able of inhibiting the invasion | able of inhibiting the proteasome activity | strong cell migration inhibitors |  | statistically significant, however lower than the one obtained in U87-MG cells | able of inhibiting the proteasome activity |  |  |

Continued, molecule first:

| SMILES | IC50 (U87-MG cells [1]) [µM] | cell invasion compared to untreated control (RPMI 8226 cells [2]) [%] | IC20 (RPMI 8226 cells [3]) [µM] | IC50 (RPMI 8226 cells [3]) [µM] | IC80 (RPMI 8226 cells [3]) [µM] | neurotoxicity in vitro (result in words) ([4]; rat DRG, 24 and 72 hours) | cell invasion (result in words) (U87-MG cells [5]) | proteasome inhibition (result in words) (Proteasome [6]) | cell migration (result in words) (U87-MG cells [7]) | neurite length, percentage of untreated control ([4]; rat DRG, all evaluated concentrations) | cell invasion (result in words) (RPMI 8226 cells [2]) | proteasome inhibition (result in words) (Proteasome [8]) | proteasome inhibition (Proteasome [8]) [%] | concentration up to which not neurotoxic ([4]; rat DRG neurite outgrowth, 24 and 72 hours) |
| --- | --- | --- | --- | --- | --- | --- | --- | --- | --- | --- | --- | --- | --- | --- |
| COc1ccc2cc(/C(C)=C/CN3CCN(C(=O)Nc4c(F)cccc4F)CC3)ccc2c1 [Compound 30, (E)-N-(2,6-difluorophenyl)-4-(3-(6-methoxynaphthalen-2-yl)but-2-en-1-yl)piperazine-1-carboxamide] | 12.2 ± 0.3 | ~80 | 7.3 ± 0.1 | 4.5 ± 0.2 | 2.9 ± 0.1 | not neurotoxic in vitro; also recorded: not neurotoxic at all evaluated concentrations | not effective | only a weak inhibitory effect | strong cell migration inhibitors | higher than 50% |  |  |  |  |
| COc1ccc2cc(/C(C)=C/CN3CCN(C(=O)Nc4ccc(C(F)(F)F)cc4)CC3)ccc2c1 [Compound 29, (E)-4-(3-(6-methoxynaphthalen-2-yl)but-2-en-1-yl)-N-(4-(trifluoromethyl)phenyl)piperazine-1-carboxamide] | 7.1 ± 0.1 |  | 8.1 ± 0.3 | 4.8 ± 0.1 | 2.9 ± 0.1 | not neurotoxic at all evaluated concentrations and time points | reduced cell invasion, but it was less effective than compound 28; also recorded: significantly able of inhibiting the invasion | only a weak inhibitory effect; also recorded: only weak inhibitory activity | strong cell migration inhibitors |  | statistically significant, however lower than the one obtained in U87-MG cells | only a weak inhibitory effect; also recorded: only weak inhibitory activity | ~50 |  |
| C/C(=C\CN1CCN(C(=O)NC2CCCC2)CC1)c1ccc2ccccc2c1 [Compound 26, (E)-N-cyclopentyl-4-(3-(naphthalen-2-yl)but-2-en-1-yl)piperazine-1-carboxamide] | 13.3 ± 0.6 | ~80 | 22.6 ± 2 | 7.9 ± 0.7 | 3.9 ± 1.2 | at the highest concentration evaluated it was found to be neurotoxic | weak effect against cell invasion | able of inhibiting the proteasome activity | weak ability to reduce migration |  |  | able of inhibiting the proteasome activity | ~50 | up to 13 μM |
